Like-named read-outs stand apart in the source and are kept apart here.
Key:
[1] = Two-week repeated dosing safety test; assay type: in vivo; settings: SD rats, 400 mg/kg oral gavage once a day, 14 days
Method: Samples for testing: compound 3-29; compound 3-16M; and compound 3-32.
Animal species and number: SD rats; 6 rats per group (half male and half female).
(§1) Mode of administration: oral gavage.
Animal grouping and administration dose: solvent blank group and compound 3-29 group (400 mg/kg); compound 3-16M group (400 mg/kg); and compound 3-32 group (400 mg/kg).
Administration frequency: once a day, and administration for 14 days.
After administration, a toxic reaction was observed by cages for 4 hours, and detailed clinical observation was made on animals with obvious abnormal performances. General clinical observation included twice a day during the duration of test (once in the morning and once in the afternoon). Death, morbidity, respiration, secretion, faeces, diet, drinking water, and other conditions were observed and weight changes of the rats during administration were recorded. Detailed clinical observations included but were not limited to behavioral activity, skin, coat, eyes, ears, nose, abdomen, external genitals, anus, extremities, feet, and respiration. After the administration, the animals in each group were euthanized, and all the animals were dissected and observed grossly.

[2] = system: NCI-H358; experiment: Cell proliferation inhibitory activity of NCI-H358, 3D model test (agarose colony formation); assay type: cell-based; settings: for IC50: Homo sapiens, NCI-H358, agarose gel, colony formation, NBT staining
Method: 100 μl of high concentration agarose gel was spread in a 96-well plate as a bottom agarose gel layer; low concentration agarose and growth medium containing cells were mixed and spread on the bottom agarose gel layer, cooled and solidified and incubated overnight at 37° C.; a test compound was prepared into a mother liquor with DMSO, diluted with a RPMI 1640 growth medium in a concentration gradient, and the gradient diluted solution of the compound to be tested with different concentrations was added into 96 wells containing upper agarose gel cells, and solvent control wells were set and placed in a carbon dioxide incubator for culture. During the period, the drug-containing medium was changed to observe the cell growth. After the culture, the cells were stained with NBT, the number of colony formation was counted, and the IC50 value of the compound inhibiting cell proliferation was obtained.

[3] = system: NCI-H358 cells; experiment: Cell proliferation inhibitory activity, NCI-H358 (CellTiter-Glo); assay type: cell-based; settings: for cell proliferation inhibitory activity, R-configuration compared with corresponding S-configuration compound (in words): H358
Method: (§2) NCI-H358 cells in an exponential growth phase were digested with trypsin-EDTA and plated in a 96-well plate at 2000-3000 cells per well and incubated overnight at 37° C. with 5% CO2. A test compound was prepared as a mother liquor with DMSO, diluted with a RPMI 1640 growth medium in a concentration gradient and added to the 96-well plate and incubated for 72 hours at 37° C. in a 5% CO2 incubator. After incubation, an equal volume of CellTiter-Glo detection reagent was added to each well and incubated after shaking, and a chemiluminescence value was measured by a microplate reader, and the IC50 value for the inhibition of NCI-H358 cell proliferation was fitted and calculated by GraphPad Prism software.
The inhibitory effect of the compounds on the proliferation activity of H358 cells was tested with reference to the method of the biological test 2, and the results were as follows:
The inhibitory effect of the compounds on the proliferation activity of NCI-H358 cells was tested with reference to the method of the biological test 2, and the results were as follows.

[4] = molecular target: T1, hERG potassium channel (Homo sapiens, UniProt Q12809); experiment: hERG potassium channels, electrophysiological manual patch clamp; assay type: cell-based
T1 construct: expressed in transfected cells; host or cells: HEK-293
T1 sequence (Q12809 whole entry): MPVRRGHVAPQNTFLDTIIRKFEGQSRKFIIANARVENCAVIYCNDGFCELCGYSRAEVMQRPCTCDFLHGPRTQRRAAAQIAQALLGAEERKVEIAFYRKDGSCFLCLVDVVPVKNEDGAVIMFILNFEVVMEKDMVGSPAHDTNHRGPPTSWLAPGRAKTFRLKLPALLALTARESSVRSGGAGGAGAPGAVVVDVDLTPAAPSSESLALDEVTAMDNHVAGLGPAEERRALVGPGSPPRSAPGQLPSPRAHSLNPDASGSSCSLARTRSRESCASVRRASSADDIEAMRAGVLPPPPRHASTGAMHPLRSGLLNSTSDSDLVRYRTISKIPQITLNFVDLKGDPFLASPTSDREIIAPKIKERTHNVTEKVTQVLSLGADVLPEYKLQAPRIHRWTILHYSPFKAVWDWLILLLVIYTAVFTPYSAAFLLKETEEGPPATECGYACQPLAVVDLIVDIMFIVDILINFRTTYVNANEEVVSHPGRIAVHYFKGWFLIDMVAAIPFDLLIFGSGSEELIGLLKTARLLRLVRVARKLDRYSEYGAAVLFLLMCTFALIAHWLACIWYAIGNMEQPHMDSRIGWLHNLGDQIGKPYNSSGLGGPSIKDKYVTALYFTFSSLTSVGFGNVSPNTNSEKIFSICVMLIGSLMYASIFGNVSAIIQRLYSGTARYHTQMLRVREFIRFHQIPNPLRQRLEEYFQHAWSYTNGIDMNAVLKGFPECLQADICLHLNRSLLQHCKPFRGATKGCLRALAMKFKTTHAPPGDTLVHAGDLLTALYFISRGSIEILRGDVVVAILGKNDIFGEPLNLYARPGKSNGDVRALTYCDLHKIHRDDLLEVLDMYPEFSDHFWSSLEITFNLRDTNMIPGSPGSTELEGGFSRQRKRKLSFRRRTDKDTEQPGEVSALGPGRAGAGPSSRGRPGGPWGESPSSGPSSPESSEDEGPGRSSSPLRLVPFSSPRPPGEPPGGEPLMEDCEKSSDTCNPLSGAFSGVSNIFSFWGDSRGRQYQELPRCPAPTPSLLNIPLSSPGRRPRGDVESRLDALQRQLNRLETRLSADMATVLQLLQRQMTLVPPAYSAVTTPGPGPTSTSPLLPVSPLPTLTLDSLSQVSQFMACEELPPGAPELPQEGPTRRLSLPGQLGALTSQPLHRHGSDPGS
Method: Preparation of test solution: the solution of test compound 3-16M was subjected to conventional ultrasound and oscillation to ensure complete dissolution of the compound.
Cell culture: the cell lines were derived from HEK-293 cells which overexpressed hERG potassium channel. The cells were cultured in a 5% CO2 incubator at 37°. When a cell density reached 80% of a culture dish, the cells were pre-washed with a phosphate buffer solution (PBS), and then digested with trypsin/EDTA, and a cell culture medium was added to stop digestion. The cells were gently blown with a pipette and transferred to a centrifuge tube, centrifuged at 1000 rpm, the supernatant was poured out, and then the cell culture medium was added. The cells were gently blown and mixed evenly, then transferred to a culture dish for subculture, or the cells were dripped on a round slide and placed in a culture dish for the cells to adhere to the wall for test.
The hERG IC50 value of the compound calculated by electrophysiology manual patch clamp system test was as follows: […]

[5] = system: NCI-H358 tumor cells xenograft; experiment: Pharmacodynamics test of xenograft tumor model of NCI-H358 in nude mice; assay type: in vivo, Balb/c Nude mice; settings: 100 mg/kg; for Tumor suppression ratio (%): NCI-H358 xenograft, QD×15 days, oral gavage
Method: Animal species and number: Balb/c Nude; 6 animals per group.
Samples for testing: compound 3-2M, compound 3-16M, TM-1, TM-3, and AMG510 (obtained by purchasing).
Test groups: blank solvent control group; compound 3-2M (100 mg/kg, QD×15 days), compound 3-16M (100 mg/kg, QD×15 days), TM-1 (100 mg/kg, QD×15 days), TM-3 (100 mg/kg, QD×15 days); and AMG510 (100 mg/kg, QD×15 days).
Animal model establishment: NCI-H358 tumor cells at logarithmic phase were cultured and collected in vitro, and inoculated subcutaneously on the right side of the back of nude mice at a quantity of 5×10^6 cells/each, and the tumor-bearing nude mice were randomly grouped when the tumor volume grew to 150-300 mm^3. Subsequently, each group of animals was administered and the day of the first administration was defined as day 1 of the test.
(§3) Administration route and frequency: oral gavage; and once a day.
(§4) General state observation: observation time and frequency: once a day; observation index or content: including, but is not limited to local administration, appearance and signs, general behavioral activities, mental status, death and other abnormal manifestations of the animals. The animals were euthanized at the end of the test.
(§5) Tumor volume calculation: V=½×long diameter× short diameter^2 (mm^3). Tumor growth inhibition ratio TGI (%) was used to evaluate the tumor suppressive efficacy of the compounds. TGI (%)=[1-(mean tumor volume at the end of administration of the treatment group−mean tumor volume at the beginning of administration of the treatment group)/(mean tumor volume at the end of administration of the control group−mean tumor volume at the beginning of administration of the control group)]×100%.

[6] = Preliminary safety test of compounds, 3-day oral gavage; settings: mouse, in vivo, Balb/c, tentatively suggested, read-out: maximum tolerated dose
Method: Samples for testing: compound 3-2M and compound 3-6M.
Animal species and number: Balb/c; 3 animals per group.
as §1
Animal grouping and administration dose: solvent blank group and compound 3-2M group (400 mg/kg, 800 mg/kg); compound 3-6M group (400 mg/kg, 800 mg/kg).
Administration frequency: once a day, and administration for 3 days.

[7] = Analysis of therapeutic safety window; settings: in vivo, oral, 3 days
[8] = system: MIA-paca-2 cells subcutaneous transplanted tumor; experiment: Pharmacodynamic test of CDX model in nude mice; assay type: in vivo; settings: 10 mg/kg, QD×15 days
Method: Animal species and number: Balb/c Nude.
Test groups: blank solvent control group; compound 3-2M (10 mg/kg, QD×15 days), and compound 3-6M (10 mg/kg, QD×15 days).
Animal model establishment: MIA-paca-2 cells were cultured in vitro and inoculated subcutaneously on the right side of the back of nude mice, and the tumor-bearing nude mice were randomly grouped. Subsequently, each group of animals was administered and the day of the first administration was defined as day 1 of the test.
as §3
as §4, with “but” for “but is”
as §5, with “diameter×short” for “diameter× short”

[9] = system: MIA PaCa-2 cells; experiment: Cell proliferation inhibitory activity, MIA PaCa-2 (CellTiter-Glo); assay type: cell-based
Method: as §2, with “MIA PaCa-2” for “NCI-H358”, “DMEM” for “RPMI 1640”

[10] = system: Langendorff isolated perfused heart; experiment: In vitro isolated heart perfusion test (Langendorff); set-up: species or system Guinea pig; settings: 3.3 μM
Description: Test method: influences of Langendorff isolated perfused heart test compounds on electrocardiogram, wherein the test method used in this test was as follows: [table] Test compounds: compound 3-2M and the compound in Example 41 of patent WO2018217651A1 (i.e., AMG510).

[11] = Homo sapiens, NCI-H358, 72 h, biological test 2, NCI-H358 cells, 72 hours, read-out: Cell proliferation inhibitory activity IC50 value of H358

SMILES | general observation: water intake, feeding, activity, body weight [1] | cell proliferation inhibitory activity against NCI-H358, 3D model (in words) [2] | IC50 [2] [nM] | cell proliferation inhibitory activity against KRAS G12C mutant cells NCI-H358 (in words) [3] | IC50 [3, 11] [nM] | inhibition of subcutaneous transplanted tumor growth of lung cancer NCI-H358 cells in nude mice (in words) [5] | Tumor suppression ratio (%) [5] | MTD at 3 days [6] [mg/kg] | therapeutic safety window: ratio of toxic dose to onset dose [7] | inhibition of subcutaneous transplanted tumor growth of pancreatic cancer MIA-paca-2 cells in nude mice (in words) [8] | toxicity during administration in CDX test (food and water intake, activities, weight) [8] | cell proliferation inhibitory activity, R-configuration compared with corresponding S-configuration compound (in words) [3] | also measured
[2H]C(=O)c1ccccc1-c1nc2c(cc1Cl)c(N1CCN(C(=O)C=C)C[C@@H]1C)nc(=O)n2-c1c(C)ccnc1C(C)C (atropisomer, axis not shown) [Compound 3-16M] | no obvious abnormal performance | significant cell proliferation inhibitory activities | 1.1 | significant cell proliferation inhibitory activities | ≤ 50 | significant inhibitory effects | ++++ (“++++” represents that the tumor suppression ratio is greater than 140%) |  |  |  |  |  | IC50 ([4]; HEK-293 cells overexpressing hERG): > 100000 nM; IC50 ([4]; human, HEK-293 cells overexpressing hERG potassium channel, test concentration range): > 100000 nM
C=CC(=O)N1CCN(c2nc(=O)n(-c3c(C)ccnc3C(C)C)c3nc(-c4c(F)cccc4C=O)c(Cl)cc23)[C@@H](C)C1 (single isomer, unassigned) [Compound 3-6M] |  |  |  | significant cell proliferation inhibitory activities | ≤ 50 |  |  | > 800 | greater than 80 times | significant inhibition of subcutaneous transplanted tumor growth | showed no toxicity | significantly better than that of the corresponding compound 3-6P | cell proliferation inhibitory activity against KRAS G12C mutant cells MIA PaCa-2 (in words) [9]: significant cell proliferation inhibitory activities; IC50 ([9]; Homo sapiens, MIA PaCa-2 cells, 72 hours): < 50 nM
C=CC(=O)N1CCN(c2nc(=O)n(-c3c(C)ccnc3C(C)C)c3nc(-c4ccccc4C=O)c(Cl)cc23)[C@@H](C)C1 [Compound 3-2M] |  | significant cell proliferation inhibitory activities | 1.8 |  |  | significant inhibitory effects | ++++ (“++++” represents that the tumor suppression ratio is greater than 140%) | > 800 | greater than 80 times | significant inhibition of subcutaneous transplanted tumor growth | showed no toxicity | significantly better than that of the corresponding compound 3-2P | cell proliferation inhibitory activity against H358, R-configuration relative to S-configuration compound (fold) ([3]; 3-2M versus 3-2P): more than five times; IC50 ([3]; biological test 2, NCI-H358 cells, 72 hours, read-out: Cell proliferation inhibitory activity IC50 value of H358): ≤ 50 nM; effect on the heart rate of the isolated heart (in words) [10]: no obvious effect on the heart rate; HR (heart rate) change % ([10]; Guinea pig isolated heart): A (“A” represents that the heart rate decreases by less than 5%)
C=CC(=O)N1CCN(c2nc(=O)n(-c3c(CF)ccnc3C(C)C)c3nc(-c4ccccc4C=O)c(Cl)cc23)[C@@H](C)C1 [Compound 3-29] | no obvious abnormal performance |  |  | significant cell proliferation inhibitory activities |  |  |  |  |  |  |  |  | IC50 ([3]; Homo sapiens, biological test 7, NCI-H358 cells, read-out: Cell proliferation inhibitory activity IC50 value of NCI-H358): < 50 nM
C=CC(=O)N1CCN(c2nc(=O)n(-c3c(CN(C)C)ccnc3C(C)C)c3nc(-c4ccccc4C=O)c(Cl)cc23)[C@@H](C)C1 [Compound 3-32] | no obvious abnormal performance |  |  | significant cell proliferation inhibitory activities |  |  |  |  |  |  |  |  | IC50 ([3]; Homo sapiens, NCI-H358, biological test 7, NCI-H358 cells, read-out: Cell proliferation inhibitory activity IC50 value of NCI-H358): < 50 nM
